The record followed here is ChEMBL document CHEMBL1201862, “PubChem BioAssay data set” (2004).

Test systems include A549; DU-145; SK-MEL-28; HCT-15; NCI-H460; HCT-116; BT-549; U-251; T47D; OVCAR-3; LOX IMVI; UO-31; NCI-H23; COLO 205; UACC-257; KM12; SNB-19; NCI/ADR-RES; MDA-MB-231; HL-60.
Test in all cases: NCI anticancer screen, dose series, 48 h

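Protocol summary: plate cells (96-well), add compound at 5 concentrations, incubate 48 h, interpolate endpoints linearly. GI50 is the concentration that inhibits growth by half.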 Activity calls are given as the source filed them. Rule as the data show it: active = GI50 up to about 1.1 µM and inactive = higher.

In the case of `O=C(O)CCC/N=C(\C(=N\CCCC(=O)O)c1ccccc1)c1ccccc1`, the GI50 was > 100 µM (inactive) in the test with A549; > 100 µM (inactive) in the test on DU-145; > 100 µM (inactive) with SK-MEL-28; more than 100 µM in the test on HCT-15; > 100 µM (inactive) in the test on NCI-H460; > 100 µM (inactive) with HCT-116. For the same compound, the GI50 in the test on BT-549, in the test on U-251, with T47D, with OVCAR-3, in the test on LOX IMVI and with UO-31 was > 100 µM (inactive) each time. The GI50 in the test with NCI-H23, with COLO 205, in the test with UACC-257, with KM12, with SNB-19 and with NCI/ADR-RES was > 100 µM (inactive) in each case. Also, the GI50 in the test with MDA-MB-231 was > 100 µM (inactive).
Take `C(=C\c1ccccc1)/C=N/c1ccc2c(c1)Cc1ccccc1-2`: the GI50 in the test on A549 is > 100 µM (inactive); with DU-145, 31.3 µM (inactive); with SK-MEL-28 it was 97.3 µM (inactive); with HCT-15, more than 100 µM; in the test with NCI-H460, 58.1 µM (inactive); in the test with HCT-116, 35.9 µM (inactive). Further, the GI50 with BT-549 is 60.4 µM (inactive); in the test on U-251, 18.7 µM (inactive); with T47D, 76.7 µM (inactive); in the test on OVCAR-3 it was 46 µM (inactive); in the test with LOX IMVI it was 23.9 µM (inactive); in the test on UO-31, > 100 µM (inactive). Moreover, the GI50 with NCI-H23 was 36.1 µM (inactive); in the test on KM12, > 100 µM (inactive); with SNB-19, 61.4 µM (inactive); in the test with NCI/ADR-RES, 51.3 µM (inactive); in the test with MDA-MB-231, 65 µM (inactive).
Regarding `Cc1cn([C@@H]2C[C@H]2CO)c(=O)[nH]c1=O`, the GI50 was > 100 µM (inactive) in the test with A549; > 100 µM (inactive) in the test on DU-145; > 100 µM (inactive) in the test with SK-MEL-28; more than 100 µM in the test on HCT-15; > 100 µM (inactive) in the test on NCI-H460; > 100 µM (inactive) in the test on HCT-116. Besides, the GI50 in the test on BT-549 was > 100 µM (inactive); in the test on U-251 it was > 100 µM (inactive); with T47D, > 100 µM (inactive); in the test on LOX IMVI it was > 100 µM (inactive); with HL-60, > 100 µM (inactive); with UO-31, 80.4 µM (inactive). The GI50 in the test with NCI-H23, in the test with COLO 205, with UACC-257, in the test on KM12, in the test with SNB-19 and in the test with NCI/ADR-RES was > 100 µM (inactive) in each case. Besides, in the test with MDA-MB-231, the GI50 is > 100 µM (inactive).
Regarding `CC1(C)CN=C(Nc2cccc(C(F)(F)F)c2)S1`, the GI50 in the test with A549 was > 100 µM (inactive); in the test with DU-145, > 100 µM (inactive); in the test on SK-MEL-28, > 100 µM (inactive); with HCT-15, more than 100 µM; in the test on HCT-116, > 100 µM (inactive); in the test on BT-549, > 100 µM (inactive). Further, the GI50 in the test with U-251 was > 100 µM (inactive); in the test on T47D, > 100 µM (inactive); with OVCAR-3, > 100 µM (inactive); in the test with LOX IMVI it was > 100 µM (inactive); in the test with HL-60 it was 59.3 µM (inactive); with UO-31, > 100 µM (inactive). Moreover, the GI50 in the test with NCI-H23, in the test with COLO 205, in the test on UACC-257, in the test with KM12, in the test on SNB-19 and in the test with NCI/ADR-RES was > 100 µM (inactive) in each case. The GI50 in the test with MDA-MB-231 is 0.684 µM (active).
As for `CCCCOP(=O)(OCCCC)/C(C#N)=C/c1ccc(C)o1`, the GI50 in the test on A549 is 47.2 µM (inactive); in the test on DU-145, > 100 µM (inactive); with SK-MEL-28, 60.8 µM (inactive); in the test with HCT-15, 38.7 µM; in the test with NCI-H460, 61.5 µM (inactive); with HCT-116, 36.9 µM (inactive). The GI50 with BT-549 was 19.1 µM (inactive); in the test on U-251, 93.3 µM (inactive); in the test on T47D, 51.5 µM (inactive); in the test on OVCAR-3 it was 14.5 µM (inactive); in the test on LOX IMVI, 59 µM (inactive); in the test on NCI-H23, 30.4 µM (inactive). Further, the GI50 is 31.9 µM (inactive) in the test on COLO 205; 27.4 µM (inactive) in the test with UACC-257; 42.4 µM (inactive) in the test on KM12; > 100 µM (inactive) with SNB-19; 15.5 µM (inactive) in the test with NCI/ADR-RES; > 100 µM (inactive) in the test with MDA-MB-231.
With `O=c1[nH]nc(Cc2ccccc2)n1Nc1ccccc1`, the GI50 in the test with A549 was > 100 µM (inactive); in the test with DU-145, > 100 µM (inactive); in the test on SK-MEL-28, > 100 µM (inactive); in the test on HCT-15 it was more than 100 µM; in the test with NCI-H460 it was > 100 µM (inactive); with HCT-116, > 100 µM (inactive). For the same compound, the GI50 in the test with BT-549 was > 100 µM (inactive); in the test on U-251, > 100 µM (inactive); in the test on T47D, > 10 µM (inactive); with OVCAR-3 it was > 100 µM (inactive); in the test on LOX IMVI, > 100 µM (inactive); in the test on HL-60, > 100 µM (inactive). Besides, the GI50 in the test with UO-31, in the test with NCI-H23, in the test on COLO 205, in the test with UACC-257, in the test with KM12 and in the test with NCI/ADR-RES was > 100 µM (inactive) each time. Further, in the test with MDA-MB-231, the GI50 is > 100 µM (inactive).
As for `COC(=O)C1=C(C)NC(CF)=C(C(=O)OC)C1c1cccc2c(=O)c3ccccc3oc12` (centres undefined), the GI50 in the test on A549 is 9.46 µM (inactive); in the test on DU-145, 90.4 µM (inactive); with SK-MEL-28, 16 µM (inactive); in the test with HCT-15 it was 4.79 µM; with NCI-H460, 4.48 µM (inactive); in the test with HCT-116, 5.2 µM (inactive). The GI50 with BT-549 was 15.8 µM (inactive); in the test on T47D, 24.3 µM (inactive); with OVCAR-3 it was 4.85 µM (inactive); in the test with LOX IMVI, 7.4 µM (inactive); with HL-60, 4.65 µM (inactive); in the test on UO-31 it was 6.59 µM (inactive). Besides, the GI50 is 36.8 µM (inactive) in the test with NCI-H23; 4.39 µM (inactive) with COLO 205; 16.5 µM (inactive) in the test with UACC-257; 5.51 µM (inactive) with KM12; 2.79 µM (inactive) with NCI/ADR-RES; 4.74 µM (inactive) with MDA-MB-231.
In the case of `CCOC(=O)[C@@]1(C)CC(O)C(=O)N1C` (some centres undefined), the GI50 is > 100 µM (inactive) in the test with A549; > 100 µM (inactive) in the test on DU-145; > 100 µM (inactive) with SK-MEL-28; more than 100 µM in the test on HCT-15; > 100 µM (inactive) in the test on HCT-116; > 100 µM (inactive) with BT-549. For the same compound, the GI50 in the test on U-251, in the test on T47D, with OVCAR-3, in the test with LOX IMVI, in the test on HL-60 and in the test on UO-31 was > 100 µM (inactive) in each case. Moreover, the GI50 with NCI-H23, in the test with COLO 205, in the test on UACC-257, with KM12, with SNB-19 and with NCI/ADR-RES was > 100 µM (inactive) each time. For the same compound, the GI50 with MDA-MB-231 is > 100 µM (inactive).
In the case of `COc1ccc2oc(=N)c(C(N)=O)cc2c1`, the GI50 with A549 is > 100 µM (inactive); in the test on DU-145, 71.9 µM (inactive); in the test with SK-MEL-28, 79.4 µM (inactive); with HCT-15, 53.1 µM; in the test on NCI-H460, 39.2 µM (inactive); in the test with HCT-116 it was 50.9 µM (inactive). Besides, the GI50 in the test with BT-549 is 57.7 µM (inactive); in the test on U-251 it was > 100 µM (inactive); in the test on T47D it was 32 µM (inactive); with OVCAR-3, 37.4 µM (inactive); in the test on LOX IMVI, 37.4 µM (inactive); in the test with HL-60 it was 22.9 µM (inactive). Also, the GI50 in the test on NCI-H23 was 68.2 µM (inactive); in the test with COLO 205, 49 µM (inactive); in the test on UACC-257, > 100 µM (inactive); in the test on KM12, 31.5 µM (inactive); in the test on SNB-19, 38.4 µM (inactive); in the test with NCI/ADR-RES, 53.3 µM (inactive). In the test with MDA-MB-231, the GI50 was 66.8 µM (inactive).
`O=C(C(=O)n1ccc2ccccc21)n1ccc2ccccc21`: the GI50 with A549 was 83.2 µM (inactive); in the test on DU-145 it was > 100 µM (inactive); in the test with SK-MEL-28 it was > 100 µM (inactive); in the test with HCT-15, more than 100 µM; in the test on NCI-H460 it was 36.6 µM (inactive); in the test with HCT-116, > 100 µM (inactive). The GI50 was > 100 µM (inactive) in the test with BT-549; 63.4 µM (inactive) in the test on U-251; > 100 µM (inactive) with T47D; > 100 µM (inactive) with OVCAR-3; > 100 µM (inactive) in the test with LOX IMVI; > 100 µM (inactive) in the test on UO-31. The GI50 in the test with NCI-H23 is 75.3 µM (inactive); in the test on COLO 205, > 100 µM (inactive); in the test with UACC-257 it was > 100 µM (inactive); in the test with SNB-19, 54.6 µM (inactive); in the test on NCI/ADR-RES, > 100 µM (inactive); in the test with MDA-MB-231, > 100 µM (inactive).
Turning to `Clc1ccc(Cl)c(NNc2cc(Cl)ccc2Cl)c1`, the GI50 with A549 was 6.67 µM (inactive); with DU-145 it was 5.37 µM (inactive); in the test on SK-MEL-28 it was 6.38 µM (inactive); in the test on HCT-15, 3.61 µM; in the test on NCI-H460, 3.66 µM (inactive); in the test on HCT-116 it was 3.84 µM (inactive). In addition, the GI50 with BT-549 was 5.19 µM (inactive); in the test on U-251, 7.59 µM (inactive); with T47D it was 4.28 µM (inactive); with OVCAR-3 it was 3.08 µM (inactive); in the test with LOX IMVI, 3.57 µM (inactive); in the test with HL-60, > 10 µM (inactive). Besides, the GI50 is 2.82 µM (inactive) with NCI-H23; > 10 µM (inactive) in the test with COLO 205; > 10 µM (inactive) in the test on UACC-257; > 10 µM (inactive) in the test on KM12; 9.79 µM (inactive) with SNB-19; 2.92 µM (inactive) in the test with NCI/ADR-RES. Further, the GI50 with MDA-MB-231 is > 10 µM (inactive).
